How the values were obtained:
Experiment in all cases: Example B post-emergence herbicidal activity
Format in all cases: in vivo
[1] = system: Echinochloa crus-galli (ECHCG); conditions: 312 h, evaluated after 13 days, read-out: Post-emergence activity ECHCG (100=total damage to plant; 0=no damage to plant); for pest or weed control at 250 g/ha: rate 250 g/ha
Experimental: (§1) Seeds of a variety of test species were sown in standard soil in pots. After cultivation for one day (pre-emergence) or after 8 days cultivation (post-emergence) under controlled conditions in a glasshouse (at 24/16° C., day/night; 14 hours light; 65% humidity), the plants were sprayed with an aqueous spray solution derived from the formulation of the technical active ingredient in acetone/water (50:50) solution containing 0.5% Tween 20 (polyoxyethelyene sorbitan monolaurate, CAS RN 9005-64-5).
(§2) The test plants were then grown in a glasshouse under controlled conditions in a glasshouse (at 24/16° C., day/night; 14 hours light; 65% humidity) and watered twice daily. After 13 days for pre and post-emergence, the test was evaluated (100=total damage to plant; 0=no damage to plant).
(§3) Alopecurus myosuroides (ALOMY), Avena fatua (AVEFA), Setaria faberi (SETFA), Echinochloa crus-galli (ECHCG), Solanum nigrum (SOLNI) and Amaranthus retoflexus (AMARE)

[2] = system: Amaranthus retoflexus (AMARE); conditions: Amaranthus retroflexus, 312 h, evaluated after 13 days, read-out: Post-emergence activity AMARE (100=total damage to plant; 0=no damage to plant); for pest or weed control at 250 g/ha: rate 250 g/ha
Experimental: as §1, §2, §3

Setaria faberi (SETFA) = conditions: 312 h, evaluated after 13 days, read-out: Post-emergence activity SETFA (100=total damage to plant; 0=no damage to plant); for pest or weed control at 250 g/ha: rate 250 g/ha
Experimental: as §1, §2, §3

[3] = system: Alopecurus myosuroides (ALOMY); conditions: 312 h, evaluated after 13 days, read-out: Post-emergence activity ALOMY (100=total damage to plant; 0=no damage to plant); for pest or weed control at 250 g/ha: rate 250 g/ha
Experimental: as §1, §2, §3

Avena fatua (AVEFA) = conditions: 312 h, evaluated after 13 days, read-out: Post-emergence activity AVEFA (100=total damage to plant; 0=no damage to plant); for pest or weed control at 250 g/ha: rate 250 g/ha
Experimental: as §1, §2, §3

SMILES | pest or weed control at 250 g/ha [1] [%] | pest or weed control at 250 g/ha [2] [%] | pest or weed control at 250 g/ha (Setaria faberi (SETFA)) [%] | pest or weed control at 250 g/ha [3] [%] | pest or weed control at 250 g/ha (Avena fatua (AVEFA)) [%] | pest or weed control at 1000 g/ha ([1]; rate 1000 g/ha) [%] | pest or weed control at 1000 g/ha ([2]; rate 1000 g/ha) [%] | pest or weed control at 1000 g/ha (Setaria faberi (SETFA); rate 1000 g/ha) [%] | pest or weed control at 1000 g/ha ([3]; rate 1000 g/ha) [%] | pest or weed control at 1000 g/ha (Avena fatua (AVEFA); rate 1000 g/ha) [%]
Cc1sc(-c2ccc(C=O)cc2)nc1C1=C(OC(=O)C(C)(C)C)[C@H]2CC[C@H](C2)C1=O [Compound P23] | 20 | 0 | 30 | 0 | 0 |  |  |  |  | 
Cc1sc(-c2ccc(Cl)cc2C(F)(F)F)nc1C1C(=O)[C@@H]2CC[C@@H](C2)C1=O (some centres unmarked) [Compound T6] | 40 | 0 | 50 | 0 | 0 |  |  |  |  | 
Cc1sc(-c2ccc(C(=O)O)cc2)cc1C1C(=O)C2CCC(C2)C1=O (centres unmarked) [Compound T24, 4-[4-(2,4-dioxobicyclo[3.2.1]oct-3-yl)-5-methylthiophen-2-yl]benzoic acid] | 0 | 0 | 30 | 0 | 0 |  |  |  |  | 
COC(=O)c1ccc(-c2cc(C3C(=O)[C@@H]4CC[C@@H](C4)C3=O)c(C)s2)cc1 (some centres unmarked) [Compound T25, 4-[4-(2,4-dioxobicyclo[3.2.1]oct-3-yl)-5-methylthiophen-2-yl]benzoic acid methyl ester] |  |  |  |  |  | 10 | 0 | 30 | 20 | 0
Cc1nc(-c2ccc(Cl)cc2)sc1C1C(=O)[C@@H]2CC[C@@H](C2)C1=O (some centres unmarked) [Compound T31] | 60 | 0 | 80 | 0 | 0 |  |  |  |  | 
O=C1C(c2csc(-c3ccc(Cl)cc3)n2)C(=O)[C@H]2CC[C@@H]1C2 (some centres unmarked) [Compound T43, 3-[2-(4-chloro-phenyl)thiazol-4-yl]bicyclo[3.2.1]octane-2,4-dione] | 20 | 0 | 60 | 20 | 0 |  |  |  |  | 
Cc1nc(-c2ccc(Cl)cc2F)sc1C1C(=O)[C@@H]2CC[C@@H](C2)C1=O (some centres unmarked) [Compound T47] | 80 | 0 | 90 | 30 | 0 |  |  |  |  | 
Cc1nc(-c2ccc(Cl)c(Cl)c2)sc1C1C(=O)[C@@H]2CC[C@@H](C2)C1=O (some centres unmarked) [Compound T48] | 80 | 0 | 80 | 20 | 0 |  |  |  |  | 
Cc1scnc1C1C(=O)[C@@H]2CC[C@@H](C2)C1=O (some centres unmarked) [Compound T52] | 0 | 0 | 0 | 0 | 0 |  |  |  |  | 
Cc1sc(-c2ccsc2)nc1C1C(=O)[C@@H]2CC[C@@H](C2)C1=O (some centres unmarked) [Compound T60] | 50 | 0 | 60 | 0 | 0 |  |  |  |  | 
Cc1sc(CC(C)C)nc1C1C(=O)[C@@H]2CC[C@@H](C2)C1=O (some centres unmarked) [Compound T61] | 0 | 0 | 20 | 0 | 0 |  |  |  |  | 
Cc1sc(-c2cccc(Cl)c2Cl)nc1C1C(=O)[C@@H]2CC[C@@H](C2)C1=O (some centres unmarked) [Compound T62] | 0 | 0 | 60 | 0 | 0 |  |  |  |  | 
Cc1sc(-c2ccccc2Cl)nc1C1C(=O)[C@@H]2CC[C@@H](C2)C1=O (some centres unmarked) [Compound T71] | 20 | 0 | 50 | 0 | 0 |  |  |  |  | 

— US8598365B2, “Herbicides” (Syngenta Limited, priority 2007, dated 2013)
